Assay results taken from patent publication US10995070B2, “Acetyl-CoA carboxylase modulators” (Monsanto Technology LLC, priority 2013, dated 2021).
pIC50: −log10 of the molar value.

Experiments:
[1] = target: Ustilago maydis acetyl CoA carboxylase (ACCase) (Ustilago maydis, UniProt A0A0D1DYD5); assay: ACCase enzymatic assay (coupled PK/LDH, NADH OD340); format: biochemical; conditions: read-out: ACCase Inhibitory Activity IC50
Experimental: Ustilago maydis acetyl CoA carboxylase (ACCase) was cloned, expressed, and purified as described (Weatherly et al, Biochem. J., 2004) and the test compounds were tested in a 96-well plate format. Primary in vitro screening consisted of obtaining dose response data at 100, 33, 10, and 1 μM inhibitor. Actives in the primary screen were re-tested to establish IC50 values.
Direct detection of the conversion of acetyl CoA to malonyl CoA by ACCase was not feasible, but during this process ATP is converted to ADP which allowed for detection through a standard reaction coupling with ADP recycling to the oxidation of NADH. Thus, ACCase activity was measured via kinetic OD340 measurements of the conversion of NADH to NAD in a coupled reaction involving the conversion of phosphoenolpyruvate (PEP) to lactate.
The complete 200 ul reaction mixture contained 52.5 mM HEPES (pH8), 2.625 mM MgCl2, 1 mM ATP, 0.525 mM DTT, 11 mM NaHCO3, 1% DMSO with or without inhibitor, 1× pyruvate kinase/lactate dehydrogenase (PK/LDH), 0.3 mM NADH, 0.5 mM PEP, and 5 μg ACCase. The reactions were incubated at 30° C. for 10 minutes and then initiated by the addition of 0.33 mM acetyl CoA. The initiated reactions were read immediately via plate reader at OD340 and kinetic readings were acquired every 20 s for 15 minutes while keeping the temperature at 30° C.
A slope of the kinetic curve was determined by using the 2 to 7 minute data which was then calculated as percent inhibition relative to the no inhibitor control.
The primary screens were conducted in duplicate and the IC50's conducted in triplicate. Averages were reported along with standard deviation calculation to generate error bars.
Each plate contained its own controls and consisted of a DMSO only control, 5-fold titration series of soraphen from 2 μM to 3.2 nM, and an ADP coupled reaction control. […]
A slope of the kinetic curve was determined by using the 2 to 7 minute data which was then calculated as percent inhibition relative to the no inhibitor control. Those compounds which had no significant PK/LDH inhibition at or above the IC50 in the ACCase assay, were considered to be valid modulators of only ACCase.

Diplodia maydis = assay: Fungal growth inhibition assay, D. maydis; format: cell-based; conditions: 48 h
Experimental: (§1) Spores were isolated from previously sub-cultured plates of Botrytis cinerea, Phytophthora capsici, Fusarium moniliforme, Fusarium viguliforme, Collectotrichum graminicola, and Diplodia maydis. All spores were filtered and collected in a sterile glass bowl to isolate the spores from the mycelia. The isolation and sub-culture plate condition for each pathogen is described below.
Spore isolation for D. maydis: A 3-4 week old PDA (pre-mix) plate was removed from 26° C. incubator with a light/dark 12 hour cycle and the mycelia were treated with 6-7 ml of sterile distilled water, scraped into a sterile petri dish, and smashed to open the pycnidia. The spores were then collected in a sterile filter bowl containing a fluted piece of filter paper and poured into a conical tube.
(§2) After spore isolation, pathogen spores were counted on a hemocytometer to calculate the spores/ml. In 17% V8 liquid media containing 3 g/L CaCO3, isolated spores were diluted to individual concentrations based on the growth curves at 48 hours of each pathogen. The spore concentrations for each pathogen were as follows: B. cinerea—10,000 sp/ml; P. capsici—300 sp/ml; F. monliforme—500 sp/ml; F. virguliforme—500 sp/ml; C. graminicola—3,000 sp/ml; and D. maydis—3,000 sp/ml.
(§3) Chemistry stocks were dissolved in DMSO at 2.5 mg/ml. Chemistry was diluted in a 96-well stock plate in five-fold dilutions to obtain a final concentration of 50, 10, and 2 ppm in vitro. The final concentration of the positive control after the five-fold dilutions was as follows: soraphen—0.5, 0.1, and 0.02 ppm. Negative controls on each plate included 2% DMSO, water containing spores and media, and a blank for background subtraction.
(§4) In a 96-well plate the spore solution, chemistries, and controls were combined to make the final solution concentrations mentioned above. Upon addition of the chemistry, an OD600 reading was done to assess chemical precipitation. The 96-well plates were incubated in plastic tubs containing wet paper towels under the following conditions, 25° C. in the dark for P. capsici and B. cinerea or 26° C. with light/dark cycle for C. graminicola, D. maydis, F. virguliforme, F. monliforme. Plate readings were repeated at 24 and 48 hrs. Visual ratings were performed at 24 and 48 hrs to check for precipitation and confirm efficacy. Visual and OD600 ratings of the chemistry at 48 hours were compared to the 2% DMSO control to determine the percent of pathogen growth inhibition.

[2] = system: Collectotrichum graminicola; assay: Fungal growth inhibition assay, C. graminicola; format: cell-based; conditions: Colletotrichum graminicola, 48 h
Experimental: as §1
Spore isolation for C. graminicola: A 1-2 week old oatmeal agar (pre-mix) plate was removed from 26° C. incubator with a light/dark 12 hour cycle and the mycelia were treated with 10-15 ml of filter sterilized distilled water. The mycelia were scraped to re-suspend the spores. The spores were then collected in a sterile filter bowl containing a piece of sterile cheesecloth and poured into a conical tube.
as §2, §3, §4

Fusarium virguliforme = assay: Fungal growth inhibition assay, F. virguliforme; format: cell-based; conditions: 48 h
Experimental: as §1
Spore isolation for F. virguliforme: A 2-3 week old PDA (pre-mix) plate containing cefotaxime (100 mg/L) and kanamycin (50 mg/L) was removed from 26° C. incubator with a light/dark 12 hour cycle and the mycelia were treated with 5-10 ml of filter sterilized distilled water. The mycelia were scraped to re-suspend the spores. The spores were then collected in a sterile filter bowl containing a fluted piece of filter paper and poured into a conical tube.
as §2, §3, §4

Saccharomyces cerevisiae = assay: Yeast growth inhibition assay; format: cell-based; conditions: read-out: S. cerevisiae % growth inhibition
Experimental: Yeast cells (Ade2 strain) were grown in liquid YPD (1% yeast extract, 2% peptone, 2% dextrose) for 16 hours at 30° C. from previously sub-cultured plates of Saccharomyces cerevisiae. The OD600 of the overnight culture was checked via spectrophotometer and diluted to a concentration of 2×10^4 cells/ml.
Chemistry stocks were dissolved in DMSO to a concentration of 10 mM. Chemistry stocks were further diluted in a 96-well stock plate to obtain final concentrations of […] in 1% DMSO. The final concentrations of the soraphen positive control were 400, 40, and 3.2 nM. The negative controls on each plate included a background subtraction control containing yeast and 1% DMSO (without chemistry) and a second contamination control containing YPD (with no yeast) and 1% DMSO (without chemistry).
98 μl liquid YPD was added to 2 μl diluted stock of DMSO per well and mixed thoroughly. After mixing, 100 μl of the diluted yeast solution was added to bring the final yeast concentration to 1×10^4 cells/ml or 2000 cells per well. An initial spectrophotometric reading at OD600 was conducted on the entire plate and served as the 0 hours time point used to subtract any background. […] […] […] All experiments were conducted in triplicate. Averages were reported along with standard deviation calculation to generate error bars. Each plate contained its own controls and consisted of inoculated+DMSO, non-inoculated+DMSO, and a titration series of soraphen at 400, 40, and 3.2 nM.

Sequence of Ustilago maydis acetyl CoA carboxylase (ACCase) (A0A0D1DYD5 1-2185): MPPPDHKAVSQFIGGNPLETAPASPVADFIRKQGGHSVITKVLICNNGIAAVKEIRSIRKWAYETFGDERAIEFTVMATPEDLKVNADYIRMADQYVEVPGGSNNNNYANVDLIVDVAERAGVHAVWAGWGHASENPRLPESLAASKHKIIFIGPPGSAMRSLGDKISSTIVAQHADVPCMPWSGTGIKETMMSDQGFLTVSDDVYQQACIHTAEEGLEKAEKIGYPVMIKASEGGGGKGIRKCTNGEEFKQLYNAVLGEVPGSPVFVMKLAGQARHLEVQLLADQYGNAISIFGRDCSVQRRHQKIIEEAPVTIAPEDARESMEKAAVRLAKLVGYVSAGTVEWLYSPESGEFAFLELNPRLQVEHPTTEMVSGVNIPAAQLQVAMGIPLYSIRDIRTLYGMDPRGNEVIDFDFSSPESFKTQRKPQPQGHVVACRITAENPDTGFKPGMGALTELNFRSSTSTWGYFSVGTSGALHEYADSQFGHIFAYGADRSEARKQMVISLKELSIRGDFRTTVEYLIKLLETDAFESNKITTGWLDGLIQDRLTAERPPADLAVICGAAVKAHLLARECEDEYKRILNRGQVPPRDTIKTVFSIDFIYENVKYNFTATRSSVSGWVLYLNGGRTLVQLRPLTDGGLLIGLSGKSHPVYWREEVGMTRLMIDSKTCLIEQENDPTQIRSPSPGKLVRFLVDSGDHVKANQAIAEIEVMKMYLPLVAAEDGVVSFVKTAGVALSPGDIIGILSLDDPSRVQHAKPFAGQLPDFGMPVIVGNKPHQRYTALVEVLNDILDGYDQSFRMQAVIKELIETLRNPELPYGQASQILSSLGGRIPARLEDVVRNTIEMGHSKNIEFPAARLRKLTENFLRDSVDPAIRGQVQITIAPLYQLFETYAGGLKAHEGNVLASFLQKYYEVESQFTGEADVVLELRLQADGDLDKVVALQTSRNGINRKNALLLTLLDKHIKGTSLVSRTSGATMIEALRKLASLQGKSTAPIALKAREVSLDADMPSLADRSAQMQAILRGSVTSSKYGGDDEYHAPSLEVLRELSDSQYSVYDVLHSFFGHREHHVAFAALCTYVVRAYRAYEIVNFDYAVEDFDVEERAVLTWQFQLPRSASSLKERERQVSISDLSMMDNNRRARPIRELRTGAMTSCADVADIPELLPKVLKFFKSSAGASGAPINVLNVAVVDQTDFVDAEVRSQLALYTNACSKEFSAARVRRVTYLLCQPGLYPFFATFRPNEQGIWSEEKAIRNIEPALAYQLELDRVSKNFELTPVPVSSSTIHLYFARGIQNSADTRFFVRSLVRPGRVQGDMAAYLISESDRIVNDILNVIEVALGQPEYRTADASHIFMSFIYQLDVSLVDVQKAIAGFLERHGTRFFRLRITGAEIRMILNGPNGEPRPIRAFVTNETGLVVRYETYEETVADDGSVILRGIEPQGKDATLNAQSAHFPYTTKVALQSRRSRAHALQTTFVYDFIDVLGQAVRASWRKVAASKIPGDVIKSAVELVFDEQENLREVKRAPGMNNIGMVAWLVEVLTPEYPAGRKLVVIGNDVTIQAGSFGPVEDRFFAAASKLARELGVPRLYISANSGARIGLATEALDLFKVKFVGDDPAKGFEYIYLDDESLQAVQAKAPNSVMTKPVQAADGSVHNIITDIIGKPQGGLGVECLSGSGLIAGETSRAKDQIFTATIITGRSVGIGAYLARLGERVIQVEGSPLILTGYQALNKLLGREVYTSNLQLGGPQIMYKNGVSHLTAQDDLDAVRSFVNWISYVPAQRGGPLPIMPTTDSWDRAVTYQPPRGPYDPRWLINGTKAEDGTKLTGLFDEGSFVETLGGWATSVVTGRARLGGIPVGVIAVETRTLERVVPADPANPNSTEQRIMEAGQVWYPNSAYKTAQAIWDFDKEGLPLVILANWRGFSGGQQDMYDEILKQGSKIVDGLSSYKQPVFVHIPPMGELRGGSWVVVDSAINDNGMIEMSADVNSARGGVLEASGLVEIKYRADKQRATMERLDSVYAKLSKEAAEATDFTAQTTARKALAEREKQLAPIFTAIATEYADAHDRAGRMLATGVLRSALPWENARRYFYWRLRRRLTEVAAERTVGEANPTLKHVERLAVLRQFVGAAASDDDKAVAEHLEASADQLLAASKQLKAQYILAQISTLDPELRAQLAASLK

COc1ccc2c(-c3ccccc3)cc(SC(C)C(N)=O)nc2c1 (centres unmarked) [Formula III-i, 2-((7-methoxy-4-phenylquinolin-2-yl)thio)propanamide]
pIC50 [1]: 5.06

COC(=O)COc1ccc(-c2cc(-c3ccccc3)c3ccccc3n2)cc1 [Formula IIc-i, methyl 2-(4-(4-phenylquinolin-2-yl)phenoxy)acetate]
inhibition at 2 ppm (Diplodia maydis): 12%
inhibition at 10 ppm (Diplodia maydis): 44%

COC(=O)Cc1ccc(-c2cc(-c3ccccc3)c3ccccc3n2)s1 [Formula IId-i, methyl 2-(5-(4-phenylquinolin-2-yl)thiophen-2-yl)acetate]
inhibition at 2 ppm [2]: 6%
inhibition at 10 ppm [2]: 32%
inhibition at 50 ppm [2]: 79%
pIC50 [1]: 4.92
inhibition at 2 ppm (Diplodia maydis): 16%
inhibition at 10 ppm (Diplodia maydis): 26%

COC(=O)Cc1ccc(-c2nc3ccccc3c(-c3ccccc3)c2Cl)s1 [Formula IId-ii, methyl 2-(5-(3-chloro-4-phenylquinolin-2-yl)thiophen-2-yl)acetate]
inhibition at 2 ppm (Fusarium virguliforme): 44%
inhibition at 10 ppm (Fusarium virguliforme): 34%
inhibition at 2 ppm (Diplodia maydis): 26%
inhibition at 10 ppm (Diplodia maydis): 30%

COc1ccc(-c2cc(-c3ccccc3)c3ccccc3n2)cc1 [Formula IV-i, 2-(4-methoxyphenyl)-4-phenylquinoline]
inhibition at 2 ppm [2]: 35%
inhibition at 10 ppm [2]: 22%
pIC50 [1]: 4.67
inhibition at 2 ppm (Diplodia maydis): 21%
inhibition at 10 ppm (Diplodia maydis): 44%

COc1ccc(-c2cc(-c3ccccc3)c3ccccc3n2)cc1OC [Formula IV-ii, 2-(3,4-dimethoxyphenyl)-4-phenylquinoline]
inhibition at 2 ppm [2]: 34%
inhibition at 10 ppm [2]: 41%
pIC50 [1]: 5.11
inhibition at 2 ppm (Diplodia maydis): 26%
inhibition at 10 ppm (Diplodia maydis): 34%

NC(=O)COc1ccc(-c2cc(-c3ccccc3)c3ccccc3n2)cc1 [Formula Ia-i, 2-(4-(4-phenylquinolin-2-yl)phenoxy)acetamide]
pIC50 [1]: 6.29

O=C(O)COc1ccc(-c2cc(-c3ccccc3)c3ccccc3n2)cc1 [Formula Ia-ii, 2-(4-(4-phenylquinolin-2-yl)phenoxy)acetic acid]
pIC50 [1]: 6.78

COc1cccc2c(-c3ccccc3)cc(-c3ccc(OCC(N)=O)cc3)nc12 [Formula Ia-iii, 2-(4-(8-methoxy-4-phenylquinolin-2-yl)phenoxy)acetamide]
pIC50 [1]: 6.26

CCc1cccc2c(-c3ccccc3)cc(-c3ccc(OCC(N)=O)cc3)nc12 [Formula Ia-iv, 2-(4-(8-ethyl-4-phenylquinolin-2-yl)phenoxy)acetamide]
pIC50 [1]: 5.09

O=C(COc1ccc(-c2cc(-c3ccccc3)c3cc(Cl)ccc3n2)cc1)NCCO [Formula Ia-v, 2-(4-(6-chloro-4-phenylquinolin-2-yl)phenoxy)-N-(2-hydroxyethyl)acetamide]
pIC50 [1]: 4.89

NC(=O)Cc1ccc(-c2nc3ccccc3c(-c3ccccc3)c2Cl)s1 [Formula Ib-i, 2-(5-(3-chloro-4-phenylquinolin-2-yl)thiophen-2-yl)acetamide]
inhibition at 2 ppm [2]: 44%
inhibition at 10 ppm [2]: 51%
inhibition at 2 ppm (Fusarium virguliforme): 43%
inhibition at 10 ppm (Fusarium virguliforme): 31%
pIC50 [1]: 5.88

NC(=O)Cc1ccc(-c2cc(-c3ccccc3)c3ccccc3n2)s1 [Formula Ib-iii, 2-(5-(4-phenylquinolin-2-yl)thiophen-2-yl)acetamide]
inhibition at 2 ppm [2]: 31%
inhibition at 10 ppm [2]: 98%
inhibition at 50 ppm [2]: 81%
pIC50 [1]: 5.09
inhibition at 3.7 µM (Saccharomyces cerevisiae; 3.7 μM): 0%
inhibition at 11.1 µM (Saccharomyces cerevisiae; 11.1 μM): 14%
inhibition at 33.3 µM (Saccharomyces cerevisiae; 33.3 μM): 57%
inhibition at 100 µM (Saccharomyces cerevisiae; 100 μM): 99%

COc1cccc2c(-c3ccccc3)cc(-c3ccc(CC(N)=O)s3)nc12 [Formula Ib-v, 2-(5-(8-methoxy-4-phenylquinolin-2-yl)thiophen-2-yl)acetamide]
pIC50 [1]: 5.38

CCc1cccc2c(-c3ccccc3)cc(-c3ccc(CC(N)=O)s3)nc12 [Formula Ib-vi, 2-(5-(8-ethyl-4-phenylquinolin-2-yl)thiophen-2-yl)acetamide]
pIC50 [1]: 5.02

CO[C@H]1CCCC[C@@H](c2ccccc2)OC(=O)[C@@H](C)[C@@]2(O)O[C@H]([C@@H](C)[C@H](O)[C@H]2OC)[C@@H](C)/C=C/[C@H]1OC [Soraphen, reference compound]
pIC50 [1]: 7.34
